According to US11773062B2, “Deuterated compounds” (priority 2021, dated 2023):

Key:
[1] = in vivo; cited from earlier work
[2] = Human liver mitochondrial fraction intrinsic clearance of SPL026 with/without MAO-A and MAO-B inhibitors; type: in vitro ADME
From the text: (§1) Human Liver Mitochondrial (HLMt) fractions contain high quantities of MAO enzymes and therefore, provide a useful tool to measure the clearance of MAO substrates.

[3] = Human liver mitochondrial fraction intrinsic clearance of SPL026, SPL028i, SPL028iii, SPL028viii; type: in vitro ADME; conditions: 0.5 mg/mL human liver mitochondrial fraction (Table 10)
From the text: as §1

CYP1A2 = biological target: T1, CYP1A2 (Homo sapiens, UniProt P05177); experiment: in vitro
T1 sequence (P05177 1-516): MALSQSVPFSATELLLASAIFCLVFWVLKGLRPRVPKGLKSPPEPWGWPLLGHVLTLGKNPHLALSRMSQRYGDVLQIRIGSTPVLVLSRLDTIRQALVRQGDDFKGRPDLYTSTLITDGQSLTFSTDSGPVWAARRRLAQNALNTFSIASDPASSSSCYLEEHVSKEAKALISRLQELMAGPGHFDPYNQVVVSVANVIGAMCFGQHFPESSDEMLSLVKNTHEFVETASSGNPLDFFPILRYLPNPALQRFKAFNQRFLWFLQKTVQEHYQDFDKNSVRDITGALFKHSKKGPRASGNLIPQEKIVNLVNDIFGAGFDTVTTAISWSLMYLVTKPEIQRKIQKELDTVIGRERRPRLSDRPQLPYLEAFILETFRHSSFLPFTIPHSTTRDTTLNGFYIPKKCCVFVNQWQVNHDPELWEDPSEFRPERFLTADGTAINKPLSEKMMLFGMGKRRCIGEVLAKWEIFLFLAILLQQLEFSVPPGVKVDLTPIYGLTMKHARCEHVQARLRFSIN
Experimental: (§2) Samples were taken at predetermined time points.
(§3) Samples were then centrifuged at −4° C.
(§4) Positive control markers are as specified in Table 11.

CYP2B6 = biological target: T2, CYP2B6 (Homo sapiens, UniProt P20813); experiment: in vitro
T2 sequence (P20813 1-491): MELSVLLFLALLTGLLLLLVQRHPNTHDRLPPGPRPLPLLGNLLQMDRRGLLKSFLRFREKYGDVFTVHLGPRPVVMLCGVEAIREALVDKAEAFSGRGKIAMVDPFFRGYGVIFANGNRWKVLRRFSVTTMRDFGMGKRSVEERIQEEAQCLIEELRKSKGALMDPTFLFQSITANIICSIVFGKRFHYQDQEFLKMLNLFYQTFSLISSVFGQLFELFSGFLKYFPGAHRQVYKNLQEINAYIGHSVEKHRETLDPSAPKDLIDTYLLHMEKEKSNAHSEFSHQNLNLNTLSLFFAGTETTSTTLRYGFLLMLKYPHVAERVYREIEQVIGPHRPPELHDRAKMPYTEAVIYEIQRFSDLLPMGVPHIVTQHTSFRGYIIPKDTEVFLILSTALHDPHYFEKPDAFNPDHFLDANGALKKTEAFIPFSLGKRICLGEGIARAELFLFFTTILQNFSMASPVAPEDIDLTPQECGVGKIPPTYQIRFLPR
Experimental: as §2, §3, §4

CYP2C8 = biological target: T3, CYP2C8 (Homo sapiens, UniProt P10632); experiment: in vitro
T3 sequence (P10632 1-490): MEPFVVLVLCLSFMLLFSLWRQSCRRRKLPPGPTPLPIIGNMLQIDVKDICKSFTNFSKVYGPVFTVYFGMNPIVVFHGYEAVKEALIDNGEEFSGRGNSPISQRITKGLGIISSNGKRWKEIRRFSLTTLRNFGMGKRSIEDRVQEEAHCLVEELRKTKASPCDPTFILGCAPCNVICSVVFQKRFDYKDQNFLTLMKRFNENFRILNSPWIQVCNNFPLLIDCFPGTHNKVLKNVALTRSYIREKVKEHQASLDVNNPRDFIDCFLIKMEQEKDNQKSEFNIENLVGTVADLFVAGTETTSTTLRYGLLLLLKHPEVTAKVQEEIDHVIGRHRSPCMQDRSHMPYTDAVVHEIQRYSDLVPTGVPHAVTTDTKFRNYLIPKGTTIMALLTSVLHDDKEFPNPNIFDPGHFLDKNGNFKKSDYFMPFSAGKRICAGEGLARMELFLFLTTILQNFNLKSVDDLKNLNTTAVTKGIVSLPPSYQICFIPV
Experimental: as §2, §3, §4

CYP3A5 = CYP3A5 (Homo sapiens, UniProt P20815); experiment: in vitro
CYP3A5, sequence (P20815 whole entry): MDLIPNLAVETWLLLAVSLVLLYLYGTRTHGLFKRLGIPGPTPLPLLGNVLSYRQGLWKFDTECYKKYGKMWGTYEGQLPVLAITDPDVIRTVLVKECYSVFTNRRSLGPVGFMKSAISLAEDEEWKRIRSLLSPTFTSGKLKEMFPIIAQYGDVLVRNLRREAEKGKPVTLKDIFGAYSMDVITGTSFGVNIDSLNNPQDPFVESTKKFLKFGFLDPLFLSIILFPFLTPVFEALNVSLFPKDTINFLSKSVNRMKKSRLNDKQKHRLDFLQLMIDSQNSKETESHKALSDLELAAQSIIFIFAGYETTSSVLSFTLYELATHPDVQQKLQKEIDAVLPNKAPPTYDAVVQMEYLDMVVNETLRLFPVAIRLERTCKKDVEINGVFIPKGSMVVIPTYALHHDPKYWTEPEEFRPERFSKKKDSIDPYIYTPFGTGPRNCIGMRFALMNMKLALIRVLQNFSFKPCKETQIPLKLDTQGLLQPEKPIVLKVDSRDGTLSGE
Experimental: as §2, §3, §4

CYP2C19 = CYP2C19 (Homo sapiens, UniProt P33261); experiment: CYP phenotyping, CYP bactosomes
CYP2C19, sequence (P33261 whole entry): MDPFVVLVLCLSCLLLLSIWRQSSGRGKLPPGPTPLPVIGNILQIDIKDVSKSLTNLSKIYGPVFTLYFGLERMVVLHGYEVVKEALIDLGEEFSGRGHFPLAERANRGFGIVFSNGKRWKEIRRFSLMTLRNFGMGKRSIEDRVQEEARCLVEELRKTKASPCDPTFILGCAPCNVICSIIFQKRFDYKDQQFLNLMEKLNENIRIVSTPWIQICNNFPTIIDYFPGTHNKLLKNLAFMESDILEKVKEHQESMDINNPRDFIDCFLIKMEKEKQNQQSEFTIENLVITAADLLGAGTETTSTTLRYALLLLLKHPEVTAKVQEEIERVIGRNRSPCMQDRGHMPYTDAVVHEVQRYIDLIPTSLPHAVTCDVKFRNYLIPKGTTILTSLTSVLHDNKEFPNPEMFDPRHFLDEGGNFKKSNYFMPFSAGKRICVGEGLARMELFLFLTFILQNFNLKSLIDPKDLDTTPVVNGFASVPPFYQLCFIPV
Experimental: as §2, §3, §4

CYP2C9 = CYP2C9 (Homo sapiens, UniProt P11712); experiment: CYP phenotyping, CYP bactosomes
CYP2C9, sequence (P11712 whole entry): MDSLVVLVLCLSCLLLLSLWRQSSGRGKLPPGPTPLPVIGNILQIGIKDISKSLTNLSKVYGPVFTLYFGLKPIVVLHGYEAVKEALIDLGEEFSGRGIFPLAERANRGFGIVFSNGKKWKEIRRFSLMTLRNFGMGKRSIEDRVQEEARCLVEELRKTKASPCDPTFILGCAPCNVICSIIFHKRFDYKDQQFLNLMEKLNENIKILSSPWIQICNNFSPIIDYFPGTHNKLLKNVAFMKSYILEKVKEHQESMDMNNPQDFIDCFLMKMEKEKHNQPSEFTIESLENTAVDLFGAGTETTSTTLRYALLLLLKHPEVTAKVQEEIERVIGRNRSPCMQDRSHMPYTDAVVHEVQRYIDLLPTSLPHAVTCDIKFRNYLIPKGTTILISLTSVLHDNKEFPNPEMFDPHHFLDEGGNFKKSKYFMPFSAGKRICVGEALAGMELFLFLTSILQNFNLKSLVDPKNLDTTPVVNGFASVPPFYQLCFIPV
Experimental: as §2, §3, §4

CYP3A4 = CYP3A4 (Homo sapiens, UniProt P08684); experiment: CYP phenotyping, CYP bactosomes
CYP3A4, sequence (P08684 whole entry): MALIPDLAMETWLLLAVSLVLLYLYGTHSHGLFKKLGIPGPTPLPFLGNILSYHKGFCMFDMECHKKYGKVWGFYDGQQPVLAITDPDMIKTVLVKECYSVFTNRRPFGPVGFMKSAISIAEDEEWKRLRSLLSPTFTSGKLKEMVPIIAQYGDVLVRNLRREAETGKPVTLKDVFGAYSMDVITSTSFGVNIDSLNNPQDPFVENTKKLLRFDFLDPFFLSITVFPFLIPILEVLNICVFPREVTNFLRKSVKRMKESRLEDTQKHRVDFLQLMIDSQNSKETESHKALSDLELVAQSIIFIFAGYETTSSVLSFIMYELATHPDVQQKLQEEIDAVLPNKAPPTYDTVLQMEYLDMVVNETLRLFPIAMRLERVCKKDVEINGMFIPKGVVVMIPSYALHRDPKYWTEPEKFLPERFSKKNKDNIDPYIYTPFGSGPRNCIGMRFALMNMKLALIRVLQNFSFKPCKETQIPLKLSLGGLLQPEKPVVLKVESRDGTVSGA
Experimental: as §2, §3, §4

CYP2D6 [4] = biological target: T4, CYP2D6 (Homo sapiens, UniProt P10635)
T4 sequence (P10635 whole entry): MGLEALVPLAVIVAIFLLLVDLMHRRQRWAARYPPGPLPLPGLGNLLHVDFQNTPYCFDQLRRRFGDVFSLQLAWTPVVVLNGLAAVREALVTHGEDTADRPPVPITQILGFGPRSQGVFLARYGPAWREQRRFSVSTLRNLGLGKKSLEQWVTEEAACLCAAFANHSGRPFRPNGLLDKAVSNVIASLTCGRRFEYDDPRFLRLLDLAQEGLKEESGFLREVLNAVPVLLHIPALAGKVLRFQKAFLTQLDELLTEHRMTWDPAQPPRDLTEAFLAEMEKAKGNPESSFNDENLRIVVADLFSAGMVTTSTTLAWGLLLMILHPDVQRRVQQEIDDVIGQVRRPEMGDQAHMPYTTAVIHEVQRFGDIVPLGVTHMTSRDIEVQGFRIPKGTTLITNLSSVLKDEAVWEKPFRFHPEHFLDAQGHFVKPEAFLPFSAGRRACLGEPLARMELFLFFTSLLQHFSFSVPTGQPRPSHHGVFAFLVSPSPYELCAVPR
Experimental: (§5) The CYPs used in this study are heterologously expressed in E. coli and purchased as individualised forms (CYP bactosomes) from CYPEX. Bactosomes contain recombinant CYP isoenzymes combined with CYP reductase leading to a higher specific activity than liver microsomes.
(§6) Phosphate buffer is prepared at 0.1 M, pH 7.4 by combining 0.1 M Na2HPO4 and 0.1 M KH2PO4 solutions.
(§7) Nicotinamide adenine dinucleotide 2′-phosphate reduced tetrasodium salt hydrate (NADPH) is prepared at 10 m<in 0.1 M phosphate buffer (pH 7.4).
(§8) The individual CYP bactosomes are thawed at room temperature undiluted to 200 pmol/mL and 0.1 M phosphate buffer.
(§9) Standard final incubation conditions are 1-3 μM compound in a buffer containing 100 pmol/mL CYP bactosome, 1% (v/v) DMSO.
(§10) The elimination rate constant (k) is calculated using the slope of a ln (MS peak area or response—if internal standard is used) vs. time plot of the test compounds and markers.
(§11) Intrinsic clearance in μL/min/nmol CYP is calculated using the following equation: Clint=−1000 k/CYP concentration
(§12) Projected CYP isoform intrinsic clearance accounting for estimated CYP abundance in human liver microsomes (μL/min/mg microsomal protein)* is calculated using the following equation: Projected set isoform intrinsic clearance=Estimated CYP abundance*Clint * Estimated CYP abundance is taken as an average from three literature references 1, 2 3 and the abundances used are as follows (nmol CYP/mg Human Liver Microsomal Protein):

CYP2D6 [5] = biological target: T4, CYP2D6; experiment: in vitro; conditions: recombinant enzyme, pH 7.4
Experimental: as §5, §6, §7, §8, §9, §10, §11, §12

CYP2D6 [6] = biological target: T4, CYP2D6; experiment: CYP phenotyping, CYP bactosomes
Experimental: as §5, §6, §7, §8, §9, §10, §11, §12

[7] = In vitro mouse hepatocytic intrinsic clearance; conditions: male, CD-1, mouse, hepatocytes
[8] = system: human (mixed gender) hepatocytes; experiment: In vitro intrinsic clearance in human hepatocytes with and without MAO-A/B inhibitor combination (first experiment)
Experimental: Standard final incubation conditions are 1 μM compound in buffer containing nominally ˜0.5 million viable cells/mL, ˜0.9% (v/v) acetonitrile (MeCN) and ˜0.1% (v/v) DMSO (specific assay concentrations outlined above, section 2).
Samples are then centrifuged at 4° C.

[9] = human liver mitochondrial fraction, Deprenyl (MAO-B inhibitor) 100 nM
[10] = E. coli CYPEX membranes, 100 pmol/mL CYP
[11] = human, recombinant enzyme, pH 7.4
[12] = human hepatocytes, with MAO-A/B inhibitor combination (Table 5)
[13] = human hepatocytes, without MAO-A/B inhibitor combination (Table 5)

SMILES: [2H]C([2H])(c1c[nH]c2ccccc12)C([2H])([2H])N(C)C [D4DMT, α,α,β,β-tetradeutero-N,N-dimethyltryptamine]
- behavioural effect compared to equal doses of DMT [1]: shorter time to onset and potentiation of behaviour disrupting effects

SMILES: CN(C)CCc1c[nH]c2ccccc12 [SPL026, N,N-dimethyltryptamine, reference compound]
- half-life ([2]; 0.5 mg/mL human liver mitochondrial fraction, DMSO Vehicle (no inhibitor)): 0.562 h
- half-life ([2]; human liver mitochondrial fraction, Clorgyline (MAO-A inhibitor) 100 nM): >6.228 h
- Intrinsic Clearance [2, 9]: 42.7 μL/min/mg protein
- half-life [2, 9]: 0.542 h
- half-life [3]: 8.6 min
- intrinsic clearance, CYP isoform 1A2 (CYP1A2; [10]): <29 μL/min/nmol CYP
- half-life (CYP1A2; [11]): > 4 h
- intrinsic clearance, CYP isoform 2B6 (CYP2B6; [10]): <29 μL/min/nmol CYP
- half-life (CYP2B6; [11]): > 4 h
- intrinsic clearance, CYP isoform 2C8 (CYP2C8; [10]): <29 μL/min/nmol CYP
- half-life (CYP2C8; [11]): > 4 h
- intrinsic clearance, CYP isoform 3A5 (CYP3A5; [10]): <29 μL/min/nmol CYP
- half-life (CYP3A5; [11]): > 4 h
- substrate for CYP2C19 (CYP2C19; CYP phenotyping): substrates
- intrinsic clearance, CYP isoform 2C19 (CYP2C19; [10]): 37 μL/min/nmol CYP
- half-life (CYP2C19; [11]): 3.15 h
- projected scaled intrinsic clearance, CYP isoform 2C19 (CYP2C19; scaled by estimated CYP abundance in human liver microsomes (0.009 nmol CYP/mg)): 0.3 μl/min/mg microsomal protein
- intrinsic clearance, CYP isoform 2C9 (CYP2C9; [10]): <29 μL/min/nmol CYP
- half-life (CYP2C9; [11]): > 4 h
- intrinsic clearance, CYP isoform 3A4 (CYP3A4; [10]): <29 μL/min/nmol CYP
- half-life (CYP3A4; [11]): > 4 h
- projected scaled intrinsic clearance, CYP isoform 2D6 (CYP2D6 [4]): 9.5 μl/min/mg microsomal protein
- half-life (CYP2D6 [5]): 9 min
- substrate for CYP2D6 (CYP2D6 [6]; CYP phenotyping): substrates
- intrinsic clearance, CYP isoform 2D6 (CYP2D6 [6]; [10]): 801 μL/min/nmol CYP
- half-life at 5 μM [7]: 0.255 h
- hepatocyte CLint at 5 μM [7]: 124 µL/min/1e6 cells
- % change in half-life, MAO inhibitors vs no inhibitors ([8]; human hepatocytes (Table 5)): 3.82%
- % change in intrinsic clearance, MAO inhibitors vs no inhibitors ([8]; human hepatocytes (Table 5)): −4.00%
- Intrinsic clearance, with inhibitors ([8]; human hepatocytes, with 100 nM clorgyline + 100 nM deprenyl/selegiline (Table 3)): 13.24 μL/min/million cells
- Half-life, with inhibitors [8, 12]: 1.601 h
- Intrinsic clearance, with inhibitors [8, 12]: 13.24 μL/min/million cells
- Half-life, with inhibitors ([8]; human hepatocytes, with MAO-A/B inhibitors (Table 4; unit given only in Table 5)): 1.601 h
- slower intrinsic clearance with inclusion of MAO inhibitors ([8]; human hepatocytes, with vs without MAO inhibitors): ~4%
- Half-life, without inhibitors ([8]; human hepatocytes, without MAO inhibitors (Table 4; unit given only in Table 5)): 1.54 h
- Half-life, without inhibitors [8, 13]: 1.54 h
- Intrinsic clearance, without inhibitors [8, 13]: 13.77 μL/min/million cells
